Assay results as given in patent US20110060156A1, “Pyruvate Derivatives with Neuroprotective Effect, Process for Preparing the Same and Pharmaceutical Composition Comprising the Same” (S.H. PHARMA., LTD., priority 2008, published 2011).
Structures can show the parent of a compound that is named as a salt. One block for each compound: values may come before it.

Experiments:
[1] = tested on: model of focal ischemic stroke (middle cerebral artery occlusion, MCAO); experiment: Cerebral infarction inhibition in animal model of focal ischemic stroke (MCAO 1 hour, TTC staining, infarct volume); assay type: in vivo, rat; conditions: for inhibition effect of cerebral infarction: 30 minutes before MCAO (1 hour)
Procedure: A model of focal ischemic stroke in the rat according to the Longa's method (1989) was used. The animal model of stroke was established by occluding the middle cerebral artery (MCA) for 1 hour using nylon suture (middle cerebral artery occlusion, MCAO). In order to investigate the effect of pyruvate derivatives according to the present invention on cerebral ischemia, a rat was decapitated after reperfusion. The whole brain was sliced into 2 mm-thick coronal slices. The slices were immediately stained by immersing in 1% 2,3,5-triphenyl tetrazolium chloride (TTC). After keeping in 4% paraformaldehyde solution at 37° C. for 15 minutes, the brain slices were subjected to measurement and analysis using Quantity One software (Bio-Rad, Hercules, Calif., USA).

[2] = tested on: stroke animal model (ischemia-reperfusion); conditions: cited from earlier work
[3] = 1 mg/kg intravenously, 6 hours after reperfusion
[4] = 1 mg/kg intravenously, 12 hours after reperfusion
[5] = 5 mg/kg intravenously, 6 hours after reperfusion
[6] = 5 mg/kg intravenously, 12 hours after reperfusion
[7] = 10 mg/kg intravenously, 6 hours after reperfusion
[8] = 10 mg/kg intravenously, 12 hours after reperfusion

melting point: 128 °C
SMILES: CC(=O)C(=O)Oc1ccc(NCc2c(F)c(F)c(C(F)(F)F)c(F)c2F)cc1C(=O)O [2-(2-oxopropanoyloxy)-5-(2,3,5,6-tetrafluoro-4-(trifluoromethyl)benzylamino)benzoic acid]
inhibition effect of cerebral infarction ([1]; 1 mg/kg intravenously): 20.2%
change in the infarct volume [1, 3]: no change
change in the infarct volume [1, 4]: no change
inhibition effect of cerebral infarction ([1]; 5 mg/kg intravenously): 90.9%
infarct volume reduced to, as compared to the control group [1, 5]: 24.5%
infarct volume reduced to, as compared to the control group [1, 6]: 56.8%
inhibition effect of cerebral infarction ([1]; 10 mg/kg intravenously): 88.4%
infarct volume reduced to, as compared to the control group [1, 7]: 33.3%
infarct volume reduced to, as compared to the control group [1, 8]: 62.4%

SMILES: CCOC(=O)C(C)=O [ethyl pyruvate]
infarct size reduced to ([2]; abdominally administered within 12 hours after ischemia-reperfusion): ≤ 50%
infarct size reduced by ([2]; treatment within 24 hours): about 20%

SMILES: CC(=O)C(=O)NCCC(Oc1ccc(C(F)(F)F)cc1)c1ccccc1 (stereo not shown) [2-oxo-N-(3-phenyl-3-(4-(trifluoromethyl)phenoxy)propyl)propanamide]
infarct volume reduced to, as compared to the control group [1, 7]: 58.7%

SMILES: CC(=O)C(=O)N(C)CCC(Oc1ccc(C(F)(F)F)cc1)c1ccccc1 (stereo not shown) [N-methyl-2-oxo-N-(3-phenyl-3-(4-(trifluoromethyl)phenoxy)propyl)propanamide]
infarct volume reduced to, as compared to the control group [1, 7]: 16.0%

melting point: 163 °C
SMILES: CC(=O)C(=O)Oc1cc(C(F)(F)F)ccc1C(=O)O (as salt: potassium) [2-(2-oxopropanoyloxy)-4-(trifluoromethyl)benzoic acid]

SMILES: CC(=O)C(=O)Oc1ccccc1C(=O)O [2-(2-oxopropanoyloxy)benzoic acid]
inhibition effect of cerebral infarction ([1]; 1 mg/kg intravenously): 42.0%
change in the infarct volume [1, 3]: no change
change in the infarct volume [1, 4]: no change
inhibition effect of cerebral infarction ([1]; 5 mg/kg intravenously): 90.2%
infarct volume reduced to, as compared to the control group [1, 5]: 47.5%
infarct volume reduced to, as compared to the control group [1, 6]: 57.4%
inhibition effect of cerebral infarction ([1]; 10 mg/kg intravenously): 89.5%
infarct volume reduced to, as compared to the control group [1, 7]: 26.6%
infarct volume reduced to, as compared to the control group [1, 8]: 64.3%

SMILES: CC(=O)C(=O)Oc1cc(C(F)(F)F)ccc1C(=O)O [2-(2-oxopropanoyloxy)-4-(trifluoromethyl)benzoic acid]
inhibition effect of cerebral infarction as compared to the control group ([1]; 5 mg/kg intravenously, MCAO 1 hour, time not stated in b180 (FIG. 8: 6 hours following MCAO)): 71.3%
